Experimental data reported in US10556888B2, “Pyrazole compounds or salts thereof, preparation methods therefor, herbicidal compositions and use thereof” (QINGDAO KINGAGROOT CHEMICAL COMPOUNDS CO., LTD, priority 2015, dated 2020).

Tests used:
Assay type in all cases: in vivo
[1] = system: Monocotyledonous and dicotyledonous weed; assay: Post-emergence test experiment, weed control effect (Table 2); parameters: key to weed control effect, Setaria viridis (level) / weed control effect, Rorippa indica (level) / weed control effect, Abutilon theophrasti (level) / weed control effect, Echinochloa crus-galli (level) / weed control effect, Digitaria sanguinalis (level): Level 10: completely dead; Level 9: above 90% growth inhibition rate; Level 8: above 80% growth inhibition rate; Level 7: above 70% growth inhibition rate; Level 6: above 60% growth inhibition rate; Level 5: above 50% growth inhibition rate; Level 4: above 30% growth inhibition rate; Level 3: above 20% growth inhibition rate; Level 2: above 10% growth inhibition rate; Level 1: above 1-10% growth inhibition rate; Level 0: no effect; conditions: 3 weeks after spraying, greenhouse
Outline: (§1)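 Compounds, dissolved in acetone, mixed with Tween 80 and diluted in water, were sprayed post-emergence onto greenhouse-grown weeds and crops at the 2-3 leaf stage (2-3 weeks post-sowing). Plants then grown 3 more weeks in the greenhouse before evaluation.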

[2] = system: main crop (wheat, corn, rice, soybean, cotton, oilseed, millet and sorghum); assay: Post-emergence test experiment, main crops (Table 2); parameters: key: Level 10: completely dead; Level 9: above 90% growth inhibition rate; Level 8: above 80% growth inhibition rate; Level 7: above 70% growth inhibition rate; Level 6: above 60% growth inhibition rate; Level 5: above 50% growth inhibition rate; Level 4: above 30% growth inhibition rate; Level 3: above 20% growth inhibition rate; Level 2: above 10% growth inhibition rate; Level 1: above 1-10% growth inhibition rate; Level 0: no effect; conditions: 3 weeks after spraying, greenhouse
Outline: as §1

[3] = system: Echinochloa crus-galli; assay: Weed control effect evaluation in transplanted rice field; parameters: key: Level 10: completely dead; Level 9: above 90% growth inhibition rate; Level 8: above 80% growth inhibition rate; Level 7: above 70% growth inhibition rate; Level 6: above 60% growth inhibition rate; Level 5: above 50% growth inhibition rate; Level 4: above 30% growth inhibition rate; Level 3: above 20% growth inhibition rate; Level 2: above 10% growth inhibition rate; Level 1: above 1-10% growth inhibition rate; Level 0: no effect; conditions: transplanted rice field pot test, application rate 60 g/ha, 14 days after treatment
Protocol: (§2) Rice field soil was loaded into a 1/1,000,000 ha pot. The seeds of Echinochloa, Scirpus juncoides, Bidens tripartite and Sagittaria trifolia were sowed and gently covered with soil, then left to stand still in greenhouse in the state of 0.5-1 cm of water storage. The tuber of Sagittaria trifolia was planted in the next day or 2 days later. It was kept at 3-4 cm of water storage thereafter. The weeds were treated by dripping the WP or SC water diluents prepared according to the common preparation method of the compounds of the present invention with pipette homogeneously to achieve specified effective amount when Echinochloa, Scirpus juncoides and Bidens tripartite reached 0.5 leaf stage and Sagittaria trifolia reached the time point of primary leaf stage.
(§3) The fertility condition of Echinochloa, Scirpus juncoides, Bidens tripartite and Sagittaria trifolia 14 days after the treatment of the compound of the invention and the fertility condition of rice 21 days after the treatment of the compound of the invention respectively with the naked eye.
(§4) The seeds of Echinochloa crus-galli, Scirpus juncoides and Monochoria vaginalis were collected from Heilongjing and Jiangsu Province of China.

[4] = system: Monochoria vaginalis; assay: as above; parameters: key: Level 10: completely dead; Level 9: above 90% growth inhibition rate; Level 8: above 80% growth inhibition rate; Level 7: above 70% growth inhibition rate; Level 6: above 60% growth inhibition rate; Level 5: above 50% growth inhibition rate; Level 4: above 30% growth inhibition rate; Level 3: above 20% growth inhibition rate; Level 2: above 10% growth inhibition rate; Level 1: above 1-10% growth inhibition rate; Level 0: no effect; conditions: transplanted rice field pot test, application rate 60 g/ha, 14 days after treatment
Protocol: as §2, §3, §4

[5] = system: Scirpus juncoides; assay: as above; parameters: key: Level 10: completely dead; Level 9: above 90% growth inhibition rate; Level 8: above 80% growth inhibition rate; Level 7: above 70% growth inhibition rate; Level 6: above 60% growth inhibition rate; Level 5: above 50% growth inhibition rate; Level 4: above 30% growth inhibition rate; Level 3: above 20% growth inhibition rate; Level 2: above 10% growth inhibition rate; Level 1: above 1-10% growth inhibition rate; Level 0: no effect; conditions: transplanted rice field pot test, application rate 60 g/ha, 14 days after treatment
Protocol: as §2, §3, §4

[6] = system: Rice; assay: Transplanted rice safety evaluation; parameters: key: Level 10: completely dead; Level 9: above 90% growth inhibition rate; Level 8: above 80% growth inhibition rate; Level 7: above 70% growth inhibition rate; Level 6: above 60% growth inhibition rate; Level 5: above 50% growth inhibition rate; Level 4: above 30% growth inhibition rate; Level 3: above 20% growth inhibition rate; Level 2: above 10% growth inhibition rate; Level 1: above 1-10% growth inhibition rate; Level 0: no effect; conditions: transplanted 3 leaf stage japonica rice, application rate 60 g/ha, 21 days after treatment
Protocol: In addition, the rice field soil that loaded into the 1/1,000,000 ha pot was leveled to keep water storage at 3-4 cm depth. The 3 leaf stage rice (japonica rice) was transplanted at 3 cm of transplanting depth the next day. The compound of the present invention was treated by the same way after 5 days of transplantation. The fertility condition of Echinochloa, Scirpus juncoides, Bidens tripartite and Sagittaria trifolia 14 days after the treatment of the compound of the invention and the fertility condition of rice 21 days after the treatment of the compound of the invention respectively with the naked eye.

With C#CCOCc1c(S(C)(=O)=O)ccc(C(=O)c2c(C3CC3)nn(C)c2OC(=O)c2cnn(C)c2)c1Cl [Compound 60] the “weed control effect, Abutilon theophrasti (level)” value ([1]; 30 g/ha) was 6 (Level 6: above 60% growth inhibition rate), the “weed control effect, Bidens pilosa (level)” value ([1]; 30 g/ha) was 4 (Level 4: above 30% growth inhibition rate) and the “weed control effect, Digitaria sanguinalis (level)” value ([1]; 30 g/ha) was 7 (Level 7: above 70% growth inhibition rate). For the same molecule, the “weed control effect, Echinochloa crus-galli (level)” value ([1]; 30 g/ha) was 10, the “weed control effect, Rorippa indica (level)” value ([1]; 30 g/ha) was 7 (Level 7: above 70% growth inhibition rate) and the “weed control effect, Setaria viridis (level)” value ([1]; 30 g/ha) was 7 (Level 7: above 70% growth inhibition rate). The “effect on crop, corn (level)” value ([2]; 30 g/ha) was 0, the “effect on crop, rice (level)” value ([2]; 30 g/ha) was 5 (Level 5: above 50% growth inhibition rate) and the “effect on crop, wheat (level)” value ([2]; 30 g/ha) was 0. For the same molecule, the “Weed control effect, Echinochloa crus-galli (activity level)” value [3] was 10, the “Weed control effect, Monochoria vaginalis (activity level)” value [4] was 10 and the “Weed control effect, Scirpus juncoides (activity level)” value (from here on “Weed control effect, Scirpus juncoides”) [5] was 10. The “Rice (safety, activity level)” value [6] was 2 (Level 2: above 10% growth inhibition rate).

CCOCCOCc1c(S(C)(=O)=O)ccc(C(=O)c2cnn(C)c2OC(=O)c2cnn(C)c2)c1Cl [Compound 68] was tested, and the “weed control effect, Abutilon theophrasti (level)” value ([1]; 30 g/ha) was 7 (Level 7: above 70% growth inhibition rate), the “weed control effect, Bidens pilosa (level)” value ([1]; 30 g/ha) was 7 (Level 7: above 70% growth inhibition rate) and the “weed control effect, Digitaria sanguinalis (level)” value ([1]; 30 g/ha) was 7 (Level 7: above 70% growth inhibition rate). For the same molecule, the “weed control effect, Echinochloa crus-galli (level)” value ([1]; 30 g/ha) was 10, the “weed control effect, Rorippa indica (level)” value ([1]; 30 g/ha) was 10 and the “weed control effect, Setaria viridis (level)” value ([1]; 30 g/ha) was 9 (Level 9: above 90% growth inhibition rate). The “effect on crop, corn (level)” value ([2]; 30 g/ha) was 0, the “effect on crop, rice (level)” value ([2]; 30 g/ha) was 3 (Level 3: above 20% growth inhibition rate) and the “effect on crop, wheat (level)” value ([2]; 30 g/ha) was 0. The “Weed control effect, Echinochloa crus-galli (activity level)” value [3] was 7 (Level 7: above 70% growth inhibition rate), the “Weed control effect, Monochoria vaginalis (activity level)” value [4] was 10 and the “Weed control effect, Scirpus juncoides” value [5] was 10. The “Rice (safety, activity level)” value [6] was 1 (Level 1: above 1-10% growth inhibition rate).

C#CCOCc1c(S(C)(=O)=O)ccc(C(=O)c2c(C)nn(C)c2OC(=O)c2cn(C)nc2C)c1C [Compound 76] was tested, and the “weed control effect, Abutilon theophrasti (level)” value ([1]; 30 g/ha) was 7 (Level 7: above 70% growth inhibition rate), the “weed control effect, Bidens pilosa (level)” value ([1]; 30 g/ha) was 7 (Level 7: above 70% growth inhibition rate) and the “weed control effect, Digitaria sanguinalis (level)” value ([1]; 30 g/ha) was 7 (Level 7: above 70% growth inhibition rate). For the same molecule, the “weed control effect, Echinochloa crus-galli (level)” value ([1]; 30 g/ha) was 10, the “weed control effect, Rorippa indica (level)” value ([1]; 30 g/ha) was 10 and the “weed control effect, Setaria viridis (level)” value ([1]; 30 g/ha) was 10. The “effect on crop, corn (level)” value ([2]; 30 g/ha) was 1 (Level 1: above 1-10% growth inhibition rate), the “effect on crop, rice (level)” value ([2]; 30 g/ha) was 3 (Level 3: above 20% growth inhibition rate) and the “effect on crop, wheat (level)” value ([2]; 30 g/ha) was 0. The “Weed control effect, Echinochloa crus-galli (activity level)” value [3] was 10, the “Weed control effect, Monochoria vaginalis (activity level)” value [4] was 10 and the “Weed control effect, Scirpus juncoides” value [5] was 10. The “Rice (safety, activity level)” value [6] was 0.

With CCn1nc(C2CC2)c(C(=O)c2ccc(S(C)(=O)=O)c(COCC(F)F)c2Cl)c1OC(=O)c1cn(C)nc1C [Compound 90] the “weed control effect, Abutilon theophrasti (level)” value ([1]; 30 g/ha) was 7 (Level 7: above 70% growth inhibition rate), the “weed control effect, Bidens pilosa (level)” value ([1]; 30 g/ha) was 7 (Level 7: above 70% growth inhibition rate) and the “weed control effect, Digitaria sanguinalis (level)” value ([1]; 30 g/ha) was 10. For the same molecule, the “weed control effect, Echinochloa crus-galli (level)” value ([1]; 30 g/ha) was 10, the “weed control effect, Rorippa indica (level)” value ([1]; 30 g/ha) was 10 and the “weed control effect, Setaria viridis (level)” value ([1]; 30 g/ha) was 10. For the same molecule, the “effect on crop, corn (level)” value ([2]; 30 g/ha) was 1 (Level 1: above 1-10% growth inhibition rate), the “effect on crop, rice (level)” value ([2]; 30 g/ha) was 3 (Level 3: above 20% growth inhibition rate) and the “effect on crop, wheat (level)” value ([2]; 30 g/ha) was 0. For the same molecule, the “Weed control effect, Echinochloa crus-galli (activity level)” value [3] was 10, the “Weed control effect, Monochoria vaginalis (activity level)” value [4] was 10 and the “Weed control effect, Scirpus juncoides” value [5] was 10. For the same molecule, the “Rice (safety, activity level)” value [6] was 0.

With C#CCOCc1c(S(C)(=O)=O)ccc(C(=O)c2cnn(C(C)C)c2OC(=O)c2cn(C)nc2C)c1Cl [Compound 100] the “weed control effect, Abutilon theophrasti (level)” value ([1]; 30 g/ha) was 7 (Level 7: above 70% growth inhibition rate), the “weed control effect, Bidens pilosa (level)” value ([1]; 30 g/ha) was 7 (Level 7: above 70% growth inhibition rate) and the “weed control effect, Digitaria sanguinalis (level)” value ([1]; 30 g/ha) was 7 (Level 7: above 70% growth inhibition rate). The “weed control effect, Echinochloa crus-galli (level)” value ([1]; 30 g/ha) was 10, the “weed control effect, Rorippa indica (level)” value ([1]; 30 g/ha) was 10 and the “weed control effect, Setaria viridis (level)” value ([1]; 30 g/ha) was 10. The “effect on crop, corn (level)” value ([2]; 30 g/ha) was 1 (Level 1: above 1-10% growth inhibition rate), the “effect on crop, rice (level)” value ([2]; 30 g/ha) was 5 (Level 5: above 50% growth inhibition rate) and the “effect on crop, wheat (level)” value ([2]; 30 g/ha) was 0. The “Weed control effect, Echinochloa crus-galli (activity level)” value [3] was 10, the “Weed control effect, Monochoria vaginalis (activity level)” value [4] was 8 (Level 8: above 80% growth inhibition rate) and the “Weed control effect, Scirpus juncoides” value [5] was 10. For the same molecule, the “Rice (safety, activity level)” value [6] was 0.

C#CCOCc1c(S(C)(=O)=O)ccc(C(=O)c2c(CC)nn(CC)c2OC(=O)c2c(Cl)c(CC)nn2C)c1Cl [Compound 107] was tested, and the “weed control effect, Abutilon theophrasti (level)” value ([1]; 60 g/ha) was 10, the “weed control effect, Bidens pilosa (level)” value ([1]; 60 g/ha) was 8 (Level 8: above 80% growth inhibition rate) and the “weed control effect, Digitaria sanguinalis (level)” value ([1]; 60 g/ha) was 8 (Level 8: above 80% growth inhibition rate). For the same molecule, the “weed control effect, Echinochloa crus-galli (level)” value ([1]; 60 g/ha) was 10, the “weed control effect, Rorippa indica (level)” value ([1]; 60 g/ha) was 10 and the “weed control effect, Setaria viridis (level)” value ([1]; 60 g/ha) was 10. The “effect on crop, corn (level)” value ([2]; 60 g/ha) was 0, the “effect on crop, rice (level)” value ([2]; 60 g/ha) was 7 (Level 7: above 70% growth inhibition rate) and the “effect on crop, wheat (level)” value ([2]; 60 g/ha) was 0. For the same molecule, the “Weed control effect, Echinochloa crus-galli (activity level)” value [3] was 9 (Level 9: above 90% growth inhibition rate), the “Weed control effect, Monochoria vaginalis (activity level)” value [4] was 10 and the “Weed control effect, Scirpus juncoides” value [5] was 10. For the same molecule, the “Rice (safety, activity level)” value [6] was 10.
